Results on 1 substance are retold here after US20220291203A1, “METHODS OF MEASURING CELL-MEDIATED KILLING BY EFFECTORS” (IMMUNOWAKE INC., priority 2019, published 2022).

“Also recorded” adds a separate entry of the source.

This assay concerns dual reporter MDA-MB-231 cells (MDA-MB-231 WT). Put plainly: T cell killing in 3D tumor-fibroblast spheroids (Example 17). It counts as cell-based, human. The settings on record: nivolumab 0.5 μg/mL; 3D spheroids, 3E:1T. An excerpt: Dual reporter MDA-MB-231 cell line with PD-L1 knockout (KO) (hereinafter referred to as “dual reporter MDA-MB-231 PD-L1 KO cells” or “MDA-MB-231 KO”) was constructed by co-transducing the Tet-on snLuc-GFP construct as constructed in Example 1 and CRISPR/Cas9 constructs targeting PD-L1. 3D tumor-fibroblast spheroids were generated by co-culturing 10,000 human dermal fibroblasts and 10,000 dual reporter MDA-MB-231 cells (“MDA-MB-231 WT”) or dual reporter MDA-MB-231 PD-L1 KO cells in ultra-low attachment plates for 3 days. After spheroid formation, 30,000 unstimulated primary T cells (3E:1T) were added in the presence of increasing concentrations of trispecific anti-HER2/anti-CD47/anti-CD3 antibody (serially diluted 5-fold, 1000 ng/mL-0.032 ng/mL), and without or with anti-PD-1 antibody nivolumab (0.5 μg/mL).
The trispecific anti-HER2/anti-CD47/anti-CD3 antibody (made in house) has no Fc function due to LALA mutations and cannot mediate ADCC. The cell-killing reaction was incubated for 48 hours. […] Cell culture media was taken one day post-induction with doxycycline (t=72 hr), and luminescence was measured on a GloMax Discover Microplate Reader. Percent cell survival was defined as luminescence readout at various antibody concentrations relative to the average readout with no antibody. […]

As for nivolumab, the “effect of nivolumab on trispecific antibody-mediated T cell killing” value was “rescued T cell killing on dual reporter MDA-MB-231 cells; also recorded: could rescue the immunosuppression on cytotoxic T cells”.
